Data taken from patent US8835476B2, “Synthesis of novel antimicrobials” (priority 2005, dated 2014).
Converted amounts (≈) assume the structure as drawn. Like-named read-outs stand apart in the source and are kept apart here.

How the values were obtained:
Assay type in all cases: cell-based
[1] = system: M. morganii clinical isolates; assay: Broth microdilution MIC, clinical isolate strains (NAUTICA); conditions: clinical isolates, one table line per isolate; unit assumed
Excerpt: (§1) All clinical isolates tested were from The North American Urinary Tract Infection Collaborative Alliance (NAUTICA) which is a UTI surveillance study involving 40 medical centres (30 from the US and 10 from Canada). Each centre submitted up to 50 consecutive outpatient midstream urine isolates. All isolates were deemed significant urinary tract pathogens by individual laboratory criteria and identified to the species level by each laboratory's existing protocol. Isolates were transported to the coordinating laboratory (Health Sciences Centre, Winnipeg, Canada) on charcoal swabs. Only one isolate per patient was accepted. Upon receipt, isolates were cultured by the coordinating laboratory, stocked in skim milk, and stored at −80° C. awaiting reference antibiotic susceptibility testing. Elementary demographic information was also compiled for each isolate. Isolates were selected randomly from the above pool to represent 18 different species of Enterobacteriaceae and non-Enterobacteriaceae. An average of 5 strains of each species were tested for a total of 93 organisms. In addition, 23 reference (ATCC) [both gram negative and gram positive] strains were tested.
(§2) Susceptibilities to the compounds were determined using the National Committee for Clinical Laboratory Standards (NCCLS) M7-A6 broth microdilution method. […] DMSO controls were incorporated into the panel to mimic the quantity of DMSO used in dissolving some of the compounds at the higher concentrations. Each final panel well volume was 100 μl with a bacterial inoculum of 5×10^5 colony forming units (CFU)/ml. Panels were read following 16 to 20 hours of incubation at 35° C. in ambient air. The minimum inhibitory concentration (MIC) was defined as the lowest concentration of antimicrobial inhibiting visible growth. Quality control (QC) was performed using four ATCC QC organisms that were run with every batch set up to insure reproducibility.

[2] = system: S. marcescens clinical isolates; assay: as above; conditions: clinical isolates, one table line per isolate; unit assumed
Excerpt: as §1, §2

[3] = system: C. koseril clinical isolates; assay: as above; conditions: clinical isolates, one table line per isolate; unit assumed
Excerpt: as §1, §2

[4] = system: E. aerogenes clinical isolates; assay: as above; conditions: clinical isolates, one table line per isolate; unit assumed
Excerpt: as §1, §2

[5] = system: S. maltophilia clinical isolates; assay: as above; conditions: clinical isolates, one table line per isolate; unit assumed
Excerpt: as §1, §2

[6] = system: A. baumanii clinical isolates; assay: as above; conditions: clinical isolates, one table line per isolate; unit assumed
Excerpt: as §1, §2

[7] = system: S. liquifaciens clinical isolates; assay: as above; conditions: clinical isolates, one table line per isolate; unit assumed
Excerpt: as §1, §2

[8] = system: B. cepacia clinical isolates; assay: as above; conditions: clinical isolates, one table line per isolate; unit assumed
Excerpt: as §1, §2

P. rettgeri CAP = assay: Broth microdilution MIC, reference strains; conditions: Providencia rettgeri; P. rettgeri (CAP in Table 1); read-out: MIC (growth inhibition, microdilution method)
Excerpt: as §1, §2

K. pneumoniae ATCC 13883 = assay: Broth microdilution MIC, ATCC strains; conditions: Klebsiella pneumoniae, ATCC13883; K. pneumoniae ATCC 13883; read-out: MIC (growth inhibition, microdilution method)
Excerpt: as §1, §2

B. cepacia ATCC 25416 = assay: Broth microdilution MIC, ATCC strains; conditions: Burkholderia cepacia, ATCC25416; B. cepacia ATCC 25416; read-out: MIC (growth inhibition, microdilution method)
Excerpt: as §1, §2

P. mirabilis ATCC 29245 = assay: Broth microdilution MIC, ATCC strains; conditions: Proteus mirabilis, ATCC29245; P. mirabilis ATCC 29245; read-out: MIC (growth inhibition, microdilution method)
Excerpt: as §1, §2

S. warneri ATCC 27836 = assay: Broth microdilution MIC, ATCC strains; conditions: Staphylococcus warneri, ATCC27836; S. warneri ATCC 27836; read-out: MIC (growth inhibition, microdilution method)
Excerpt: as §1, §2

Pr. stuartii ATCC 33672 = assay: Broth microdilution MIC, ATCC strains; conditions: Providencia stuartii, ATCC33672; Pr. stuartii ATCC 33672; read-out: MIC (growth inhibition, microdilution method)
Excerpt: as §1, §2

E. cloacae ATCC 23355 = assay: Broth microdilution MIC, ATCC strains; conditions: Enterobacter cloacae, ATCC23355; E. cloacae ATCC 23355; read-out: MIC (growth inhibition, microdilution method)
Excerpt: as §1, §2

S. marcescens ATCC 8100 = assay: Broth microdilution MIC, ATCC strains; conditions: Serratia marcescens, ATCC8100; S. marcescens ATCC 8100; read-out: MIC (growth inhibition, microdilution method)
Excerpt: as §1, §2

S. simulans ATCC 27848 = assay: Broth microdilution MIC, ATCC strains; conditions: Staphylococcus simulans, ATCC27848, read-out: MIC (growth inhibition, microdilution method)
Excerpt: as §1, §2

E. coli ATCC 25922 = assay: Broth microdilution MIC, ATCC strains; conditions: Escherichia coli, ATCC25922, E. coli ATCC 25922; read-out: MIC (growth inhibition, microdilution method)
Excerpt: as §1, §2

K. oxytoca ATCC 49131 = assay: Broth microdilution MIC, ATCC strains; conditions: Klebsiella oxytoca, ATCC49131; K. oxytoca ATCC 49131; read-out: MIC (growth inhibition, microdilution method)
Excerpt: as §1, §2

[9] = system: S. liquefaciens ATCC 27592; assay: Broth microdilution MIC, ATCC strains; conditions: S. liquefaciens ATCC 27592; read-out: MIC (growth inhibition, microdilution method)
Excerpt: as §1, §2

MRSA ATCC 33591 = assay: Broth microdilution MIC, ATCC strains; conditions: Staphylococcus aureus; MRSA ATCC 33591; read-out: MIC (growth inhibition, microdilution method)
Excerpt: as §1, §2

[10] = system: Ps. aeruginosa ATCC 27853; assay: Broth microdilution MIC, ATCC strains; conditions: Pseudomonas aeruginosa, ATCC27853; Ps. aeruginosa ATCC 27853; read-out: MIC (growth inhibition, microdilution method)
Excerpt: as §1, §2

[11] = system: S. maltophilia ATCC 13637; assay: Broth microdilution MIC, ATCC strains; conditions: Stenotrophomonas maltophilia, ATCC13637; S. maltophilia ATCC 13637; read-out: MIC (growth inhibition, microdilution method)
Excerpt: as §1, §2

[12] = system: S. saprophyticus ATCC 15305; assay: Broth microdilution MIC, ATCC strains; conditions: Staphylococcus saprophyticus, ATCC15305; S. saprophyticus ATCC 15305; read-out: MIC (growth inhibition, microdilution method)
Excerpt: as §1, §2

[13] = system: S. epidermidis ATCC 14990; assay: Broth microdilution MIC, ATCC strains; conditions: Staphylococcus epidermidis, ATCC14990; S. epidermidis ATCC 14990; read-out: MIC (growth inhibition, microdilution method)
Excerpt: as §1, §2

S. aureus ATCC 29213 = assay: Broth microdilution MIC, ATCC strains; conditions: Staphylococcus aureus, ATCC29213, S. aureus ATCC 29213; read-out: MIC (growth inhibition, microdilution method)
Excerpt: as §1, §2

P. vulgaris ATCC 49132 = assay: Broth microdilution MIC, ATCC strains; conditions: Proteus vulgaris, ATCC49132; P. vulgaris ATCC 49132; read-out: MIC (growth inhibition, microdilution method)
Excerpt: as §1, §2

E. faecium ATCC 35667 = assay: Broth microdilution MIC, ATCC strains; conditions: Enterococcus faecium, ATCC35667, read-out: MIC (growth inhibition, microdilution method)
Excerpt: as §1, §2

A. anitratus ATCC 19606 = assay: Broth microdilution MIC, ATCC strains; conditions: Acinetobacter calcoaceticus, ATCC19606; A. anitratus ATCC 19606; read-out: MIC (growth inhibition, microdilution method)
Excerpt: as §1, §2

E. faecalis ATCC 29212 = assay: Broth microdilution MIC, ATCC strains; conditions: Enterococcus faecalis, read-out: MIC (growth inhibition, microdilution method)
Excerpt: as §1, §2

E. aerogenes ATCC 13048 = assay: Broth microdilution MIC, ATCC strains; conditions: Klebsiella aerogenes, ATCC13048; E. aerogenes ATCC 13048; read-out: MIC (growth inhibition, microdilution method)
Excerpt: as §1, §2

[14] = system: E. cloacae clinical isolates; assay: Broth microdilution MIC, clinical isolate strains (NAUTICA); conditions: clinical isolates, one table line per isolate; unit assumed
Excerpt: as §1, §2

[15] = ATCC29212, E. faecalis ATCC 29212
[16] = ATCC29212, E. faecalis, ATCC number not given

Row | SMILES | MIC, S. MALTOPHILIA [5] | MIC, A. BAUMANII [6] | MIC, B. CEPACIA [8] | MIC (P. rettgeri CAP) | MIC (K. pneumoniae ATCC 13883) | MIC (B. cepacia ATCC 25416) | MIC (P. mirabilis ATCC 29245) | MIC (S. warneri ATCC 27836) | MIC (Pr. stuartii ATCC 33672) | MIC (E. cloacae ATCC 23355) | MIC (S. marcescens ATCC 8100) | MIC (S. simulans ATCC 27848) | MIC (E. coli ATCC 25922) | MIC (K. oxytoca ATCC 49131) | MIC [9] | MIC (MRSA ATCC 33591) | MIC [10] | MIC [11] | MIC [12] | MIC [13] | further results
1 | Cn1nnnc1-c1cc(C(=O)O)sc1C(=O)O [DNM-113, 3-(1-Methyl-1H-tetrazol-5-yl)-thiophene-2,5-dicarboxylic acid] | 8 µg/mL (≈ 31.5 µM) | 8 µg/mL (≈ 31.5 µM) | 8 µg/mL (≈ 31.5 µM) | 8 µg/mL (≈ 31.5 µM) | 8 µg/mL (≈ 31.5 µM) | 8 µg/mL (≈ 31.5 µM) | 16 µg/mL (≈ 62.9 µM) | 16 µg/mL (≈ 62.9 µM) | 16 µg/mL (≈ 62.9 µM) | 8 µg/mL (≈ 31.5 µM) | 8 µg/mL (≈ 31.5 µM) | 32 µg/mL (≈ 126 µM) | 8 µg/mL (≈ 31.5 µM) | 8 µg/mL (≈ 31.5 µM) | 8 µg/mL (≈ 31.5 µM) | 64 µg/mL (≈ 252 µM) | 8 µg/mL (≈ 31.5 µM) | 8 µg/mL (≈ 31.5 µM) | 8 µg/mL (≈ 31.5 µM) | 8 µg/mL (≈ 31.5 µM) | MIC, M. MORGANII [1]: 8 µg/mL (≈ 31.5 µM); MIC, S. MARCESCENS [2]: 8 µg/mL (≈ 31.5 µM); MIC, C. KOSERI [3]: 8 µg/mL (≈ 31.5 µM); MIC, E. AEROGENES [4]: 8 µg/mL (≈ 31.5 µM); MIC, S. LIQUEFACIENS [7]: 8 µg/mL (≈ 31.5 µM); MIC (S. aureus ATCC 29213): 32 µg/mL (≈ 126 µM); MIC (P. vulgaris ATCC 49132): 16 µg/mL (≈ 62.9 µM); MIC (E. faecium ATCC 35667): 8 µg/mL (≈ 31.5 µM); MIC (A. anitratus ATCC 19606): 8 µg/mL (≈ 31.5 µM); MIC (E. faecalis ATCC 29212; [15]): 8 µg/mL (≈ 31.5 µM); MIC (E. faecalis ATCC 29212; [16]): 8 µg/mL (≈ 31.5 µM); MIC (E. aerogenes ATCC 13048): 8 µg/mL (≈ 31.5 µM)
2 | COC(=O)c1cc(-c2nnnn2C)c(C(=O)OC)s1 [DNM-115, 3-(1-Methyl-1H-tetrazol-5-yl)-thiophene-2,5-dicarboxylic acid dimethyl ester] | 8 µg/mL (≈ 28.3 µM) | 8 µg/mL (≈ 28.3 µM) | 8 µg/mL (≈ 28.3 µM) | 16 µg/mL (≈ 56.7 µM) | 8 µg/mL (≈ 28.3 µM) | 8 µg/mL (≈ 28.3 µM) | 16 µg/mL (≈ 56.7 µM) | > 16 µg/mL | > 16 µg/mL | > 16 µg/mL | 8 µg/mL (≈ 28.3 µM) | > 16 µg/mL | 8 µg/mL (≈ 28.3 µM) | 8 µg/mL (≈ 28.3 µM) | 8 µg/mL (≈ 28.3 µM) | > 16 µg/mL | 8 µg/mL (≈ 28.3 µM) | 8 µg/mL (≈ 28.3 µM) | 8 µg/mL (≈ 28.3 µM) | 8 µg/mL (≈ 28.3 µM) | MIC, E. CLOACAE [14]: > 16 µg/mL; MIC (S. aureus ATCC 29213): > 16 µg/mL; MIC (P. vulgaris ATCC 49132): 16 µg/mL (≈ 56.7 µM); MIC (E. faecium ATCC 35667): 8 µg/mL (≈ 28.3 µM); MIC (A. anitratus ATCC 19606): 8 µg/mL (≈ 28.3 µM); MIC (E. faecalis ATCC 29212; [15]): 8 µg/mL (≈ 28.3 µM); MIC (E. faecalis ATCC 29212; [16]): 8 µg/mL (≈ 28.3 µM); MIC (E. aerogenes ATCC 13048): 8 µg/mL (≈ 28.3 µM)
